Data published in patent US12570642B2, “GLP-IR modulating compounds” (Gilead Sciences, Inc., priority 2021, dated 2026).

Each compound was assayed against GLP-1R (Homo sapiens, UniProt P43220) (assay: GLP-1R Activation - cAMP Assay). Settings: […]; each compound run on one of the two cAMP assays (Assay 1 or Assay 2, not specified).
Format: cell-based
In short: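 CHO cells stably expressing GLP-1R, plated at 1,000 cells/well overnight, then equilibrated 1 h in HBSS with 20 mM Hepes and 0.1% BSA. Agonist added as 10-point dose response for 30 min at 37 °C. cAMP measured by HTRF (Cisbio Gs Dynamic kit); EC50 from sigmoidal fit.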

Sequence of GLP-1R (P43220 24-463): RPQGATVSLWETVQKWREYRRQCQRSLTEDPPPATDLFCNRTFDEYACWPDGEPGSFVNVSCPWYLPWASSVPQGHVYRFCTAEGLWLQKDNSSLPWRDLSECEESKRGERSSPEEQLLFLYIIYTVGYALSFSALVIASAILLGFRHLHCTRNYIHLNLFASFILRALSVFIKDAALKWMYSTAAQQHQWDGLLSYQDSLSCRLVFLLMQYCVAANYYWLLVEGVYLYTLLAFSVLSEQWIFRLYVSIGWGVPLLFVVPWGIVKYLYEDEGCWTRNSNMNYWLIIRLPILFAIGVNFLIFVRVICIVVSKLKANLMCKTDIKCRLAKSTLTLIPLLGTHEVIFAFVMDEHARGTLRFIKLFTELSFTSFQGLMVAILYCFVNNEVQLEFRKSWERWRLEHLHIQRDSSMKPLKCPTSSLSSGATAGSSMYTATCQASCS

Question: `COC(=O)N1C[C@@H](OC)[C@@H](n2c(Cc3cc(F)c(-c4cccc(OCc5ccc(C#N)cc5F)n4)cc3F)nc3ccc(C(=O)O)cc32)C1` [Example 87, 2-(4-(6-((4-cyano-2-fluorobenzyl)oxy)pyridin-2-yl)-2,5-difluorobenzyl)-1-((3S,4R)-4-methoxy-1-(methoxycarbonyl)pyrrolidin-3-yl)-1H-benzo[d]imidazole-6-carboxylic Acid] was tested. Which EC50 did it give?
Answer: Its EC50 is 22.5 nM.

Question: For `CO[C@@H]1CN(S(C)(=O)=O)C[C@H]1n1c(Cc2cc(F)c(-c3cccc(OCc4ccc(C#N)cc4F)n3)cc2F)nc2ccc(C(=O)O)cc21` [Example 88], which EC50 is on record?
Answer: The EC50 was 136 nM.

Question: Which EC50 does the source give for `CO[C@@H]1CN(S(C)(=O)=O)C[C@@H]1n1c(Cc2cc(F)c(-c3cccc(OCc4ccc(C#N)cc4F)n3)cc2F)nc2ccc(C(=O)O)cc21` [Example 89, 2-(4-(6-((4-cyano-2-fluorobenzyl)oxy)pyridin-2-yl)-2,5-difluorobenzyl)-1-((3S,4R)-4-methoxy-1-(methylsulfonyl)pyrrolidin-3-yl)-1H-benzo[d]imidazole-6-carboxylic Acid] here?
Answer: The EC50 was 15.3 nM.

Same assay, conditions: cAMP increase in CHO cells stably expressing GLP-1R; each compound run on one of the two cAMP assays (Assay 1 or Assay 2, not specified)

Question: With `Cn1cc(-c2cc(F)c(COc3cccc(-c4cc(F)c(Cc5nc6ccc(C(=O)O)cc6n5C5COCC5(C)C)cc4F)n3)cn2)cn1` (stereo not drawn) [Example 90] as the compound, how does the EC50 read?
Answer: The EC50 was 0.7 nM.

Question: With `COc1cc(-c2cnn(C)c2)ncc1COc1cccc(-c2cc(F)c(Cc3nc4ccc(C(=O)O)cc4n3C[C@@H](C)OC)cc2F)n1` [Example 91, (R)-2-(2,5-difluoro-4-(6-((4-methoxy-6-(1-methyl-1H-pyrazol-4-yl)pyridin-3-yl)methoxy)pyridin-2-yl)benzyl)-1-(2-methoxypropyl)-1H-benzo[d]imidazole-6-carboxylic Acid] as the compound, how does the EC50 read?
Answer: The EC50 was 2.06 nM.

Question: How did the EC50 turn out when `CC1(C)COCC1n1c(Cc2cc(F)c(-c3cccc(OCc4ccc(Cl)nc4)n3)cc2F)nc2ccc(C(=O)O)cc21` (stereo not drawn) [Example 92] was run?
Answer: The EC50 was 0.13 nM.

Question: Which EC50 does the source give for `CC1(C)COCC1n1c(Cc2cc(F)c(-c3cccc(OCc4cnc(Cl)cn4)n3)cc2F)nc2ccc(C(=O)O)cc21` (stereo not drawn) [Example 93, 2-(4-(6-((5-chloropyrazin-2-yl)methoxy)pyridin-2-yl)-2,5-difluorobenzyl)-1-(4,4-dimethyltetrahydrofuran-3-yl)-1H-benzo[d]imidazole-6-carboxylic Acid] here?
Answer: The EC50 was 0.35 nM.

Question: `COCCn1c(Cc2cc(F)c(-c3cccc(OCc4cnc(C(F)F)cn4)n3)cc2F)nc2ccc(C(=O)O)cc21` [Example 94] was tested. Which EC50 did it give?
Answer: Its EC50 is 23.9 nM.

Question: With `COCCn1c(Cc2cc(F)c(-c3cccc(OCc4ccc(-n5ccnc5)nc4)n3)cc2F)nc2ccc(C(=O)O)cc21` [Example 95, 2-(4-(6-((6-(1H-imidazol-1-yl)pyridin-3-yl)methoxy)pyridin-2-yl)-2,5-difluorobenzyl)-1-(2-methoxyethyl)-1H-benzo[d]imidazole-6-carboxylic Acid] as the compound, how does the EC50 read?
Answer: Its EC50 is 0.97 nM.

Question: For `COCCn1c(Cc2cc(F)c(-c3cccc(OCc4ccc(C(C)(F)F)cc4)n3)cc2F)nc2ccc(C(=O)O)cc21` [Example 96, 2-(4-(6-((4-(1,1-difluoroethyl)benzyl)oxy)pyridin-2-yl)-2,5-difluorobenzyl)-1-(2-methoxyethyl)-1H-benzo[d]imidazole-6-carboxylic Acid], which EC50 is on record?
Answer: Its EC50 is 0.98 nM.

Question: For `COCCn1c(Cc2ccc(-c3cccc(OCc4ccc(C#N)cc4F)n3)c3c2COC3)nc2ccc(C(=O)O)cc21` [Example 97], which EC50 is on record?
Answer: Its EC50 is 21.2 nM.

Question: `COCCOCCOCCn1cc(-c2ccc(COc3cccc(-c4cc(F)c(Cc5nc6ccc(C(=O)O)cc6n5CCOC)cc4F)n3)c(F)c2)cn1` [Example 98] was tested. Which EC50 did it give?
Answer: Its EC50 is 1.43 nM.

Question: For `COCCn1c(Cc2cc(F)c(-c3cccc(OCc4ccc(-c5cn(C)nn5)cc4F)n3)cc2F)nc2ccc(C(=O)O)cc21` [Example 99, 2-(2,5-difluoro-4-(6-((2-fluoro-4-(1-methyl-1H-1,2,3-triazol-4-yl)benzyl)oxy)pyridin-2-yl)benzyl)-1-(2-methoxyethyl)-1H-benzo[d]imidazole-6-carboxylic Acid], which EC50 is on record?
Answer: The EC50 was 0.6 nM.

Question: Which EC50 does the source give for `COCCn1c(Cc2cc(F)c(-c3cccc(OCc4ccc(-c5cnn(C(F)F)c5)cc4F)n3)cc2F)nc2ccc(C(=O)O)cc21` [Example 100, 2-(4-(6-((4-(1-(difluoromethyl)-1H-pyrazol-4-yl)-2-fluorobenzyl)oxy)pyridin-2-yl)-2,5-difluorobenzyl)-1-(2-methoxyethyl)-1H-benzo[d]imidazole-6-carboxylic Acid] here?
Answer: The EC50 was 0.45 nM.

Question: Which EC50 does the source give for `COCCn1c(Cc2cc(F)c(-c3cccc(OCc4ccc(-c5ccnn5C)cc4F)n3)cc2F)nc2ccc(C(=O)O)cc21` [Example 101, 2-(2,5-difluoro-4-(6-((2-fluoro-4-(1-methyl-1H-pyrazol-5-yl)benzyl)oxy)pyridin-2-yl)benzyl)-1-(2-methoxyethyl)-1H-benzo[d]imidazole-6-carboxylic Acid] here?
Answer: Its EC50 is 1.46 nM.

Question: With `COCCn1c(Cc2cc(F)c(-c3cccc(OCc4ccc(-c5cc(C(F)(F)F)nn5C)cc4F)n3)cc2F)nc2ccc(C(=O)O)cc21` [Example 102, 2-(2,5-difluoro-4-(6-((2-fluoro-4-(1-methyl-3-(trifluoromethyl)-1H-pyrazol-5-yl)benzyl)oxy)pyridin-2-yl)benzyl)-1-(2-methoxyethyl)-1H-benzo[d]imidazole-6-carboxylic Acid] as the compound, how does the EC50 read?
Answer: The EC50 was 22.8 nM.

Question: How did the EC50 turn out when `COCCn1c(Cc2cc(F)c(-c3cccc(OCc4ccc(-c5cccnc5)cc4F)n3)cc2F)nc2ccc(C(=O)O)cc21` [Example 103, 2-(2,5-difluoro-4-(6-((2-fluoro-4-(pyridin-3-yl)benzyl)oxy)pyridin-2-yl)benzyl)-1-(2-methoxyethyl)-1H-benzo[d]imidazole-6-carboxylic Acid] was run?
Answer: The EC50 was 1.23 nM.

Question: `COCCn1c(Cc2cc(F)c(-c3cccc(OCc4ccc(-c5cccnc5C)cc4F)n3)cc2F)nc2ccc(C(=O)O)cc21` [Example 104, 2-(2,5-difluoro-4-(6-((2-fluoro-4-(2-methylpyridin-3-yl)benzyl)oxy)pyridin-2-yl)benzyl)-1-(2-methoxyethyl)-1H-benzo[d]imidazole-6-carboxylic Acid] was tested. Which EC50 did it give?
Answer: The EC50 was 41.3 nM.

Question: For `COCCn1c(Cc2cc(F)c(-c3cccc(OCc4ccc(-c5ccc(C)nc5)cc4F)n3)cc2F)nc2ccc(C(=O)O)cc21` [Example 105, 2-(2,5-difluoro-4-(6-((2-fluoro-4-(6-methylpyridin-3-yl)benzyl)oxy)pyridin-2-yl)benzyl)-1-(2-methoxyethyl)-1H-benzo[d]imidazole-6-carboxylic Acid], which EC50 is on record?
Answer: The EC50 was 1.55 nM.

Question: For `COCCn1cc(-c2ccc(COc3cccc(-c4cc(F)c(Cc5nc6ccc(C(=O)O)cc6n5CCOC)cc4F)n3)c(F)c2)cn1` [Example 106, 2-(2,5-difluoro-4-(6-((2-fluoro-4-(1-(2-methoxyethyl)-1H-pyrazol-4-yl)benzyl)oxy)pyridin-2-yl)benzyl)-1-(2-methoxyethyl)-1H-benzo[d]imidazole-6-carboxylic Acid], which EC50 is on record?
Answer: The EC50 was 2.22 nM.

Question: How did the EC50 turn out when `COCCn1c(Cc2cc(F)c(-c3cccc(OCc4ccc(-c5cn(C)nn5)nc4)n3)cc2F)nc2ccc(C(=O)O)cc21` [Example 107, 2-(2,5-difluoro-4-(6-((6-(1-methyl-1H-1,2,3-triazol-4-yl)pyridin-3-yl)methoxy)pyridin-2-yl)benzyl)-1-(2-methoxyethyl)-1H-benzo[d]imidazole-6-carboxylic Acid] was run?
Answer: The EC50 was 1.4 nM.

Question: With `COCCn1c(Cc2cc(F)c(-c3cccc(OCc4ccc(-c5cnn(C)c5)nc4)n3)cc2F)nc2ccc(C(=O)O)cc21` [Example 108, 2-(2,5-difluoro-4-(6-((6-(1-methyl-1H-pyrazol-4-yl)pyridin-3-yl)methoxy)pyridin-2-yl)benzyl)-1-(2-methoxyethyl)-1H-benzo[d]imidazole-6-carboxylic Acid] as the compound, how does the EC50 read?
Answer: Its EC50 is 3.28 nM.

Question: `COCCn1c(Cc2cc(F)c(-c3cccc(OCc4ccc(-c5cnn(C(F)F)c5)nc4)n3)cc2F)nc2ccc(C(=O)O)cc21` [Example 109, 2-(4-(6-((6-(1-(difluoromethyl)-1H-pyrazol-4-yl)pyridin-3-yl)methoxy)pyridin-2-yl)-2,5-difluorobenzyl)-1-(2-methoxyethyl)-1H-benzo[d]imidazole-6-carboxylic Acid] was tested. Which EC50 did it give?
Answer: Its EC50 is 2.51 nM.

Question: For `COCCn1c(Cc2cc(F)c(-c3cccc(OCc4ccc(-c5ccnn5C)nc4)n3)cc2F)nc2ccc(C(=O)O)cc21` [Example 110, 2-(2,5-difluoro-4-(6-((6-(1-methyl-1H-pyrazol-5-yl)pyridin-3-yl)methoxy)pyridin-2-yl)benzyl)-1-(2-methoxyethyl)-1H-benzo[d]imidazole-6-carboxylic Acid], which EC50 is on record?
Answer: Its EC50 is 4.93 nM.

Question: Which EC50 does the source give for `C#Cc1ccc(COc2cccc(-c3cc(F)c(Cc4nc5ccc(C(=O)O)cc5n4CCOC)cc3F)n2)c(F)c1` [Example 111] here?
Answer: Its EC50 is 1.46 nM.

Question: Which EC50 does the source give for `COCCn1c(Cc2cc(F)c(-c3cccc(OCc4ccc(-c5ncnn5C)cc4F)n3)cc2F)nc2ccc(C(=O)O)cc21` [Example 112] here?
Answer: Its EC50 is 23 nM.

Question: With `COCCn1c(Cc2cc(F)c(-c3cccc(OCc4ccc(-c5cncn5C)cc4F)n3)cc2F)nc2ccc(C(=O)O)cc21` [Example 113] as the compound, how does the EC50 read?
Answer: The EC50 was 11 nM.

Question: How did the EC50 turn out when `COCCn1c(Cc2cc(F)c(-c3cccc(OCc4ccc(-c5cnn(CC(F)F)c5)cc4F)n3)cc2F)nc2ccc(C(=O)O)cc21` [Example 114] was run?
Answer: The EC50 was 5.99 nM.

Question: Which EC50 does the source give for `CC1(C)COC[C@H]1n1c(Cc2cc(F)c(-c3ccc(F)c(OCc4ccc(C#N)cc4F)n3)cc2F)nc2c(F)cc(C(=O)O)cc21` [Example 116, 2-[[4-[6-[(4-cyano-2-fluoro-phenyl)methoxy]-5-fluoro-2-pyridyl]-2,5-difluoro-phenyl]methyl]-3-[(3S)-4,4-dimethyltetrahydrofuran-3-yl]-7-fluorobenzimidazole-5-carboxylic Acid] here?
Answer: The EC50 was 0.005 nM.

Question: `CC1(C)COC[C@H]1n1c(Cc2cc(F)c(-c3cccc(OCc4cnc(-n5ccnn5)cc4Cl)n3)cc2F)nc2ccc(C(=O)O)cc21` [Example 118, (S)-2-(4-(6-((4-chloro-6-(1H-1,2,3-triazol-1-yl)pyridin-3-yl)methoxy)pyridin-2-yl)-2,5-difluorobenzyl)-1-(4,4-dimethyltetrahydrofuran-3-yl)-1H-benzo[d]imidazole-6-carboxylic Acid] was tested. Which EC50 did it give?
Answer: Its EC50 is 0.053 nM.
